Results taken from patent US9469615B2, “Quinoxalines and AZA-quinoxalines as CRTH2 receptor modulators” (Merck Sharp & Dohme Corp., priority 2010, dated 2016).

Target: T1, hCRTH2 (Homo sapiens, UniProt Q9Y5Y4)
T1 construct: expressed in transfected cells; host or cells: HEK (human embryonic kidney) cells expressing hCRTH2; membrane preparation
T1 sequence (Q9Y5Y4 1-395): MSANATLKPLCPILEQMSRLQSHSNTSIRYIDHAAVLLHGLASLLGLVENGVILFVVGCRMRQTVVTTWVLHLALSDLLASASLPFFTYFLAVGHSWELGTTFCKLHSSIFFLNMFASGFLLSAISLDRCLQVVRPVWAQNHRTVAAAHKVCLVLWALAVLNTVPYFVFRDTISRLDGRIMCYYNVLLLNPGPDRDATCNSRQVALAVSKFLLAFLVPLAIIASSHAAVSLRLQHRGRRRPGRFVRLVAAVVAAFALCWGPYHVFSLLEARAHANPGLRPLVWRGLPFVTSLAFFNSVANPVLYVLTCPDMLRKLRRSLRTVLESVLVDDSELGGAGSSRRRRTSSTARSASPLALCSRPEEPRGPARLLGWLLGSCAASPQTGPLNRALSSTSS
Experiment: Radioligand binding assay ([3H]PGD2 competition, HEK-hCRTH2 membranes)
Conditions: [3H]PGD2 binding, values in text
Procedure, shortened: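 Competition binding with 3.0 nM [3H]PGD2 and 8-20 μg HEK-hCRTH2 membrane protein in 50 mM Tris-HCl pH 7.4, 1 mM EDTA, 2 mM MnCl2, 1% Me2SO, 60 min at room temperature. Nonspecific binding defined with 10 μM PGD2; bound radioactivity counted after filtration.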

With Cc1cnccc1N1CCN(C(=O)c2ccc3nc(-c4ccc(F)cc4)c(CCCCC(=O)O)nc3c2)CC1 [compound 368, 5-(3-(4-fluorophenyl)-7-(4-(3-methylpyridin-4-yl)piperazine-1-carbonyl)quinoxalin-2-yl)pentanoic acid] the Ki was 21.4 nM.

Same assay, conditions: [3H]PGD2 competition, Table B

O=C(O)CCCCc1nc2cc(C(=O)N3CCC(n4ccc5ccccc54)CC3)ccc2nc1-c1ccc(Cl)cc1 [compound 338, 5-(7-(4-(1H-indol-1-yl)piperidine-l-carbonyl)-3-(4-chlorophenyl)quinoxalin-2-yl)pentanoic acid] and O=C(O)CCCCc1nc2cc(C(=O)N3CCC(n4ncc5ccccc54)CC3)ccc2nc1-c1ccc(Cl)cc1 [compound 348, 5-(7-(4-(1H-indazol-1-yl)piperidine-1-carbonyl)-3-(4-chlorophenyl)quinoxalin-2-yl)pentanoic acid] fall in the same range of Ki: 2.1 to 20 nM for the first, 2.1 to 20 nM for the second.

Compared with O=C(O)CCCCc1nc2cc(C(=O)N3CCC(N4CCCC4)CC3)ccc2nc1-c1ccc(Cl)cc1 [compound 339, 5-(3-(4-chlorophenyl)-7-(4-(pyrrolidin-1-yl)piperidine-1-carbonyl)quinoxalin-2-yl)pentanoic acid], O=C(O)CCCCc1nc2cc(C(=O)N3CCC(n4cncn4)CC3)ccc2nc1-c1ccc(Cl)cc1 [compound 341, 5-(7-(4-(1H-1,2,4-triazol-yl)piperidine-1-carbonyl)-3-(4-chlorophenyl)quinoxalin-2-yl)pentanoic acid] is lower in Ki: 20.1 to 200 nM for the first, 2.1 to 20 nM for the second. The second binds more tightly here.

First: O=C(O)CCCCc1nc2cc(C(=O)N3CCC4(CCOC4)CC3)ccc2nc1-c1ccc(Cl)cc1 [compound 340, 5-(3-(4-chlorophenyl)-7-(2-oxa-8-azaspiro[4.5]decane-8-carbonyl)quinoxalin-2-yl)pentanoic acid]
Second: CN1CC2(CCN(C(=O)c3ccc4nc(-c5ccc(Cl)cc5)c(CCCCC(=O)O)nc4c3)CC2)CC1=O [compound 349, 5-(3-(4-chlorophenyl)-7-(2-methyl-3-oxo-2,8-diazaspiro[4.5]decane-8-carbonyl)quinoxalin-2-yl)pentanoic acid]
The Ki of the first is lower: 2.1 to 20 nM for the first, 20.1 to 200 nM for the second. The first binds more tightly here.

O=C(O)CCCCc1nc2cc(C(=O)N3CCC(n4cccn4)CC3)ccc2nc1-c1ccc(Cl)cc1 [compound 342, 5-(7-(4-(1H-pyrazol-1-yl)piperidine-1-carbonyl)-3-(4-chlorophenyl)quinoxalin-2-yl)pentanoic acid] and Cn1cnc(C2CCN(C(=O)c3ccc4nc(-c5ccc(Cl)cc5)c(CCCCC(=O)O)nc4c3)CC2)c1 [compound 346, 5-(3-(4-chlorophenyl)-7-(4-(1-methyl-1H-imidazol-4-yl)piperidine-1-carbonyl)quinoxalin-2-yl)pentanoic acid] fall in the same range of Ki: 2.1 to 20 nM for the first, 2.1 to 20 nM for the second.

O=C(O)CCCCc1nc2cc(C(=O)N3CCC4(CC3)COc3ccccc34)ccc2nc1-c1ccc(Cl)cc1 [compound 343, 5-(3--(4-chlorophenyl)-7-(2H-spiro[benzofuran-3,4′-piperidin]-1′-ylcarbonyl)quinoxalin-2-yl)pentanoic acid] and O=C(O)CCCCc1nc2cc(C(=O)N3CCC4(CC3)NC(=O)c3ccccc3O4)ccc2nc1-c1ccc(Cl)cc1 [compound 344, 5-(3-(4-chlorophenyl)-7-(4-oxo-3,4-dihydrospiro[benzo[e][1,3]oxazine-2,4′-piperidin]-1′-ylcarbonyl)quinoxalin-2-yl)pentanoic acid] fall in the same range of Ki: 2.1 to 20 nM for the first, 2.1 to 20 nM for the second.

O=C(O)CCCCc1nc2cc(C(=O)N3CC4CCCC(C3)C4c3ccccc3)ccc2nc1-c1ccc(Cl)cc1 [compound 345, 5-(3-(4-chlorophenyl)-7-((1R,5S,9r)-9-phenyl-3-azabicyclo[3.3.1]nonane-3-carbonyl)quinoxa1in-2-yl)pentanoic acid] and O=C(O)CCCCc1nc2cc(C(=O)N3CCN(c4ccccc4Cl)CC3)ccc2nc1-c1ccc(F)cc1 [compound 364, 5-(7-(4-(2-chlorophenyl)piperazine-1-carbonyl)-3-(4-fluorophenyl)quinoxalin-2-yl)pentanoic acid] fall in the same range of Ki: 2.1 to 20 nM for the first, 2.1 to 20 nM for the second.

First: O=C(O)CCCCc1nc2cc(C(=O)N3CCc4oc(C5CC5)nc4C3)ccc2nc1-c1ccc(Cl)cc1 [compound 347, 5-(3-(4-chlorophenyl)-7-(2-cyclopropyl-4,5,6,7-tetrahydrooxazolo[4,5-c]pyridine-5-carbonyl)quinoxalin-2-yl)pentanoic acid]
Second: COc1ccccc1C1CCN(C(=O)c2ccc3nc(-c4ccc(F)cc4)c(CCCCC(=O)O)nc3c2)CC1 [compound 361, 5-(3-(4-fluorophenyl)-7-(4-(2-methoxyphenyl)piperidine-1-carbonyl)quinoxalin-2-yl)pentanoic acid]
The Ki of the first is higher: 20.1 to 200 nM for the first, 2.1 to 20 nM for the second.

First: O=C(O)CCCCc1nc2cc(C(=O)N3CCN(c4ccccc4)C(=O)C3)ccc2nc1-c1ccccc1 [compound 350, 5-(7-(3-oxo-4-phenylpiperazine-1-carbonyl)-3-phenylquinoxalin-2-yl)pentanoic acid]
Second: O=C(O)CCCCc1nc2cc(C(=O)N3CCN(c4ccc(F)cc4)CC3)ccc2nc1-c1ccccc1 [compound 351, 5-(7-(4-(4-fluorophenyl)piperazine-1-carbonyl)-3-phenylquinoxalin-2-yl)pentanoic acid]
The Ki of the first is higher: 20.1 to 200 nM for the first, 2.1 to 20 nM for the second.

O=C(O)CCCCc1nc2cc(C(=O)NC3CC(=O)Nc4ccccc43)ccc2nc1-c1ccc(F)cc1 (centres unmarked) [compound 352, 5-(3-(4-fluorophenyl)-7-((2-oxo-1,2,3,4-tetrahydroquinolin-4-yl)carbamoyl)quinoxalin-2-yl)pentanoic acid] and O=C(O)CCCCc1nc2cc(C(=O)N[C@@H]3CCSc4ccccc43)ccc2nc1-c1ccc(F)cc1 [compound 355, (R)-5-(3-(4-fluorophenyl)-7-(thiochroman-4-ylcarbamoyl)quinoxalin-2-yl)pentanoic acid] fall in the same range of Ki: 2.1 to 20 nM for the first, 2.1 to 20 nM for the second.

O=C(O)CCCCc1nc2cc(C(=O)N3CCC4(CC3)CNC(=O)c3ccccc34)ccc2nc1-c1ccc(F)cc1 [compound 353, 5-(3-(4-fluorophenyl)-7-(1-oxo-2,3-dihydro-1H-spiro[isoquinoline-4,4′-piperidin]-1′-ylcarbonyl)quinoxalin-2-yl)pentanoic acid] and O=C(O)CCCCc1nc2cc(C(=O)N3CCC4(CC3)OCc3ccccc34)ccc2nc1-c1ccc(F)cc1 [compound 362, 5-(3-(4-fluorophenyl)-7-(3H-spiro[isobenzofuran-1,4′-piperidin]-1′-ylcarbonyl)quinoxalin-2-yl)pentanoic acid] fall in the same range of Ki: 2.1 to 20 nM for the first, 2.1 to 20 nM for the second.

O=C(O)CCCCc1nc2cc(C(=O)N[C@@H]3CCCc4ccncc43)ccc2nc1-c1ccc(F)cc1 [compound 354, (R)-5-(3-(4-fluorophenyl)-7-((5,6,7,8-tetrahydroisoquinolin-8-yl)carbamoyl)quinoxalin-2-yl)pentanoic acid] and Cc1cnccc1N1CCN(C(=O)c2ccc3nc(-c4ccc(F)cc4)c(CCCCC(=O)O)nc3c2)CC1 [compound 368, 5-(3-(4-fluorophenyl)-7-(4-(3-methylpyridin-4-yl)piperazine-1-carbonyl)quinoxalin-2-yl)pentanoic acid] fall in the same range of Ki: 20.1 to 200 nM for the first, 20.1 to 200 nM for the second.

First: O=C(O)CCCCc1nc2cc(C(=O)N3CCC(n4c(=O)[nH]c5ccccc54)CC3)ccc2nc1-c1ccc(F)cc1 [compound 356, 5-(3-(4-fluorophenyl)-7-(4-(2-oxo-2,3-dihydro-1H-benzo[d]imidazol-1-yl)piperidine-1-carbonyl)quinoxalin-2-yl)pentanoic acid]
Second: Cc1ccccc1N1CCN(C(=O)c2ccc3nc(-c4ccc(F)cc4)c(CCCCC(=O)O)nc3c2)CC1 [compound 365, 5-(3-(4-fluorophenyl)-7-(4-(o-tolyl)piperazine-1-carbonyl)quinoxalin-2-yl)pentanoic acid]
The Ki of the first is higher: 20.1 to 200 nM for the first, 2.1 to 20 nM for the second.

First: O=C(O)CCCCc1nc2cc(C(=O)N3CCN(c4ccccn4)CC3)ccc2nc1-c1ccc(F)cc1 [compound 357, 5-(3-(4-fluorophenyl)-7-(4-(pyridin-2-yl)piperazine-1-carbonyl)quinoxalin-2-yl)pentanoic acid]
Second: O=C(O)CCCCc1nc2cc(C(=O)N3CCN(c4cnccn4)CC3)ccc2nc1-c1ccc(F)cc1 [compound 360, 5-(3-(4-fluorophenyl) 7-(4-(pyrazin-2-yl)piperazine-1-carbonyl)quinoxalin-2-yl)pentanoic acid]
The Ki of the first is lower: 2.1 to 20 nM for the first, 20.1 to 200 nM for the second. The first binds more tightly here.

N#Cc1cccnc1N1CCN(C(=O)c2ccc3nc(-c4ccc(F)cc4)c(CCCCC(=O)O)nc3c2)CC1 [compound 358, 5-(7-(4-(3-cyanopyridin-2-yl)piperazine-l-carbonyl)-3-(4-fluorophenyl)quinoxalin-2-yl)pentanoic acid] and N#Cc1ccccc1N1CCN(C(=O)c2ccc3nc(-c4ccc(F)cc4)c(CCCCC(=O)O)nc3c2)CC1 [compound 359, 5-(7-(4-(2-cyanophenyl)piperazine-1-carbonyl)-3-(4-fluorophenyl)quinoxalin-2-yl)pentanoic acid] fall in the same range of Ki: 2.1 to 20 nM for the first, 2.1 to 20 nM for the second.

O=C(O)CCCCc1nc2cc(C(=O)N3CCN(c4ccccc4C(F)(F)F)CC3)ccc2nc1-c1ccc(F)cc1 [compound 363, 5-(3-(4-fluorophenyl)-7-(4-(2-(trifluoromethyl)phenyl)piperazine-1-carbonyl)quinoxalin-2-yl)pentanoic acid] and Cc1cccc(N2CCN(C(=O)c3ccc4nc(-c5ccc(F)cc5)c(CCCCC(=O)O)nc4c3)CC2)c1 [compound 366, 5-(3-(4-fluorophenyl)-7-(4-(m-tolyl)piperazine-1-carbonyl)quinoxalin-2-yl)pentanoic acid] fall in the same range of Ki: 2.1 to 20 nM for the first, 2.1 to 20 nM for the second.

In the case of COc1ccc(N2CCN(C(=O)c3ccc4nc(-c5ccc(F)cc5)c(CCCCC(=O)O)nc4c3)CC2)cc1 [compound 367, 5-(3-(4-fluorophenyl)-7-(4-(4-methoxyphenyl)piperazine-1-carbonyl)quinoxalin-2-yl)pentanoic acid], the Ki is reported as 2.1 to 20 nM.
